Data taken from publication PMC10175918 (Communications Biology, 2023).
Read-outs that look alike come from different tables or passages of the source. Each block holds one compound with its values, some of them ahead of it.

Assays:
Experiment in all cases: cell-based
Parameters in all cases: species or system HEK293A; AP-TGFα shedding assay, transfected GPCR plus chimeric Gα mixture, AP release as % of TPA response
Settings in all cases: HEK293-A
[1] = molecular target: T1, 5-hydroxytryptamine receptor 1E (Homo sapiens, UniProt P28566)
T1 construct: gene HTR1E
T1 sequence (P28566 whole entry): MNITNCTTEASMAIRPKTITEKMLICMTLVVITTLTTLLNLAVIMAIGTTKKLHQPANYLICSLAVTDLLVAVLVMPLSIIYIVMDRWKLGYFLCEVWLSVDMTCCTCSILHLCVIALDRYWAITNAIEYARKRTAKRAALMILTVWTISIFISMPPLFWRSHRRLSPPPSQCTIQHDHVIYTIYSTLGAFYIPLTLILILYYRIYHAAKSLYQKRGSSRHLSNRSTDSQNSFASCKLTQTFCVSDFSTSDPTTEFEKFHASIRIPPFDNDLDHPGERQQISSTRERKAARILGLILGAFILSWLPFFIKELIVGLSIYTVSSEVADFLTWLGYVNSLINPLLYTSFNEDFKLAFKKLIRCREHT

[2] = molecular target: T2, G protein-coupled receptor 18 (Homo sapiens, UniProt Q14330)
T2 construct: gene GPR18
T2 sequence (Q14330 1-331): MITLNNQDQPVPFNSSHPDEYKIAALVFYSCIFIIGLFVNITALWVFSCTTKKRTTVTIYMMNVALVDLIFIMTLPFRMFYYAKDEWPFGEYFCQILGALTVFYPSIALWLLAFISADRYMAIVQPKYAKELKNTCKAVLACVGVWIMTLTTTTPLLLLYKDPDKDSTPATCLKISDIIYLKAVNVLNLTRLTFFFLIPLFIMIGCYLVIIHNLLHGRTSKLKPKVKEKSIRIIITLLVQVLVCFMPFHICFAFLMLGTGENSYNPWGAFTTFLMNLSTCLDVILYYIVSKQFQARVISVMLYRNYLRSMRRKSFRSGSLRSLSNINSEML

[3] = molecular target: T3, G protein-coupled receptor 65 (Homo sapiens, UniProt Q8IYL9)
T3 construct: gene GPR65
T3 sequence (Q8IYL9 whole entry): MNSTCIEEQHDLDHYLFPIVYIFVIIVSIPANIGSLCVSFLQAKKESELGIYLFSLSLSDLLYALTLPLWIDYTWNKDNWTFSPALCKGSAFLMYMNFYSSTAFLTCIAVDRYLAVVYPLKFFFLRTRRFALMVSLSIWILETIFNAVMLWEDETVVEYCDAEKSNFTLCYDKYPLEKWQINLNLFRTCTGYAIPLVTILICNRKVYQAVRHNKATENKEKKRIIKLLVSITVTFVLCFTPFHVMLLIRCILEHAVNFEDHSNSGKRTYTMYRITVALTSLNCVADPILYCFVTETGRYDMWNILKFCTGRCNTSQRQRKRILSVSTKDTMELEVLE

[4] = molecular target: T4, GPR132 (Homo sapiens, UniProt Q9UNW8)
T4 sequence (Q9UNW8 1-380): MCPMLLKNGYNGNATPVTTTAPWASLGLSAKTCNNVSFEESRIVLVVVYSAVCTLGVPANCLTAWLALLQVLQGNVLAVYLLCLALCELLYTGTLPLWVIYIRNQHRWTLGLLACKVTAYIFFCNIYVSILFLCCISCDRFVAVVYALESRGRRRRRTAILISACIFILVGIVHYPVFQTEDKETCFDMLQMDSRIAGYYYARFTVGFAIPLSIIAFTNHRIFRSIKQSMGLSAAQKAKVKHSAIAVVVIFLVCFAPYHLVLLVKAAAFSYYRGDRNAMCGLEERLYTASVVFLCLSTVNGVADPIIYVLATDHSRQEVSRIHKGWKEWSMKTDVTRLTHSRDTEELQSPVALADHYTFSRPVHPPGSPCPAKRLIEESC

[5] = molecular target: T5, chemerin chemokine-like receptor 1 (Homo sapiens, UniProt Q99788)
T5 construct: gene CMKLR1
T5 sequence (Q99788 1-373): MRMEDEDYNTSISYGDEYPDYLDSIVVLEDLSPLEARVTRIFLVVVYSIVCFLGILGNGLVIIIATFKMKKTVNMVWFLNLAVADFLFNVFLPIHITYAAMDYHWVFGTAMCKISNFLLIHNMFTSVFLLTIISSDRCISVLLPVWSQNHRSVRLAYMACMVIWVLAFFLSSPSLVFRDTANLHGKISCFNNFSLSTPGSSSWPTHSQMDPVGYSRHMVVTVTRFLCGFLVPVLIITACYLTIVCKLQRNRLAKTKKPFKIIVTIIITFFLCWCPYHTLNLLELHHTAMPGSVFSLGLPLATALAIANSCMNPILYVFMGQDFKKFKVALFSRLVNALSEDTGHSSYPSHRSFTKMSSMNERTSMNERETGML

[6] = molecular target: T6, purinergic receptor P2Y, G-protein coupled, 13 short (Homo sapiens, UniProt Q9BPV8)
T6 construct: gene P2RY13; short
T6 sequence (Q9BPV8 1-354): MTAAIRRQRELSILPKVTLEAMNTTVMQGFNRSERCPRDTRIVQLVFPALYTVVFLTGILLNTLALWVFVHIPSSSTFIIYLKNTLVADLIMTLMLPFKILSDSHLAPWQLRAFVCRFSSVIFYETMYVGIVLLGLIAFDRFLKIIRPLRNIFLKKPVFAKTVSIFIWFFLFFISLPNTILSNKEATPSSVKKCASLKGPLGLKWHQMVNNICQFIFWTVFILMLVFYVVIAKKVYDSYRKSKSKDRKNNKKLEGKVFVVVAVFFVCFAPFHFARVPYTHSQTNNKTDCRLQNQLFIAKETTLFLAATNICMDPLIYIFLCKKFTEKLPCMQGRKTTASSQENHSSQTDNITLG

[7] = molecular target: T7, relaxin/insulin-like family peptide receptor 3 (Homo sapiens, UniProt Q9NSD7)
T7 construct: gene RXFP3
T7 sequence (Q9NSD7 1-469): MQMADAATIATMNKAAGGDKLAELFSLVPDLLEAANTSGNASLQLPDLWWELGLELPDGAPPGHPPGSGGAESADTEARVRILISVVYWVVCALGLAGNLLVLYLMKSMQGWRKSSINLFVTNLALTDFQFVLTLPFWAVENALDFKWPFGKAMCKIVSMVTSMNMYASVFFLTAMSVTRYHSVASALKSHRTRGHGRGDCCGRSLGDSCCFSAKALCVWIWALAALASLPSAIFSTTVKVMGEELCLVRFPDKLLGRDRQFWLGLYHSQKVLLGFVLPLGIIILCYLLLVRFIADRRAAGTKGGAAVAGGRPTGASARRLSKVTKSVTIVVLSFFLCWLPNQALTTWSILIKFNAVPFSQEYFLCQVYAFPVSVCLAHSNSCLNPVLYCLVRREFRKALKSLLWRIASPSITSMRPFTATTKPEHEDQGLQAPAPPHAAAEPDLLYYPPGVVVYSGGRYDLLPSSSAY

[8] = molecular target: T8, relaxin/insulin-like family peptide receptor 4 (Homo sapiens, UniProt Q8TDU9)
T8 construct: gene RXFP4
T8 sequence (Q8TDU9 whole entry): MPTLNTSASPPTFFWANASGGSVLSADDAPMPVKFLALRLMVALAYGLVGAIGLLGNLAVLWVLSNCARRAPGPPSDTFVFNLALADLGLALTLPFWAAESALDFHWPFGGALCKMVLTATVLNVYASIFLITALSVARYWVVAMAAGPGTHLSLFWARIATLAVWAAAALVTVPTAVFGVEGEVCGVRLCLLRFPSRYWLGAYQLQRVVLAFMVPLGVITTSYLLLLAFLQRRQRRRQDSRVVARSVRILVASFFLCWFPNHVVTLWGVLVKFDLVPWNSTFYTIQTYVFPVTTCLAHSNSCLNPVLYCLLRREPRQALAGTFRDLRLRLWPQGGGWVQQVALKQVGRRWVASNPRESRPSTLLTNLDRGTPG

[9] = read-out: % GPCR activation of 10μM Sofosbuvir compared to TPA
[10] = read-out: % GPCR activation of 10µM Molnupiravir compared to TPA
[11] = read-out: % GPCR activation of 100μM Favipiravir compared to TPA
[12] = read-out: % GPCR activation of 10μM GS441524 compared to TPA
[13] = read-out: % GPCR activation of 10µM Remdesivir compared to TPA

activity at 10 µM [1, 10]: -0.994%
activity at 10 µM [2, 10]: -5.39%
activity at 10 µM [3, 10]: -8.38%
activity at 10 µM [4, 10]: -1.8%
activity at 10 µM [5, 10]: -0.313%
activity at 10 µM [6, 10]: -3.48%
activity at 10 µM [7, 10]: -2.92%
activity at 10 µM [8, 10]: -0.46%
Structure (SMILES): CC(C)C(=O)OC[C@H]1O[C@@H](n2ccc(NO)nc2=O)[C@H](O)[C@@H]1O [molnupiravir]

activity at 100 µM [1, 11]: 0.555%
activity at 100 µM [2, 11]: -1%
activity at 100 µM [3, 11]: 1.28%
activity at 100 µM [4, 11]: 7.4%
activity at 100 µM [5, 11]: 2.98%
activity at 100 µM [6, 11]: 1.7%
activity at 100 µM [7, 11]: 1.4%
activity at 100 µM [8, 11]: 1.69%
Structure (SMILES): NC(=O)c1nc(F)cnc1O [favipiravir, 6-fluoro-3-hydroxy-2-pyrazinecarboxamide]

The remaining lines, values behind:

Structure (SMILES): CC(C)OC(=O)[C@H](C)N[P@](=O)(OC[C@H]1O[C@@H](n2ccc(=O)[nH]c2=O)[C@](C)(F)[C@@H]1O)Oc1ccccc1 [sofosbuvir]
activity at 10 µM [1, 9]: -1.21%
activity at 10 µM [2, 9]: -3.04%
activity at 10 µM [3, 9]: -10.5%
activity at 10 µM [4, 9]: -1.37%
activity at 10 µM [5, 9]: -0.939%
activity at 10 µM [6, 9]: -2.68%
activity at 10 µM [7, 9]: -2.19%
activity at 10 µM [8, 9]: -1.57%

Structure (SMILES): N#C[C@@]1(c2ccc3c(N)ncnn23)O[C@H](CO)[C@@H](O)[C@H]1O [GS441524]
activity at 10 µM [1, 12]: -1.38%
activity at 10 µM [2, 12]: 2.08%
activity at 10 µM [3, 12]: -3.08%
activity at 10 µM [4, 12]: -8.13%
activity at 10 µM [5, 12]: -4.93%
activity at 10 µM [6, 12]: 0.947%
activity at 10 µM [7, 12]: 1.98%
activity at 10 µM [8, 12]: -0.338%

Structure (SMILES): CCC(CC)COC(=O)[C@H](C)N[P@](=O)(OC[C@H]1O[C@@](C#N)(c2ccc3c(N)ncnn23)[C@H](O)[C@@H]1O)Oc1ccccc1 [remdesivir]
activity at 10 µM [1, 13]: -0.0718%
activity at 10 µM [2, 13]: 1.12%
activity at 10 µM [3, 13]: -1.39%
activity at 10 µM [4, 13]: 11%
activity at 10 µM [5, 13]: -1.38%
activity at 10 µM [6, 13]: 2.55%
activity at 10 µM [7, 13]: 3.55%
activity at 10 µM [8, 13]: 0.997%
